Experimental data taken from paper PMC5349767 (ACS chemical neuroscience, 2015).
Structures can show the parent of a compound that is named as a salt. Where two headings read alike, the source gives them in different places.

Key:
[1] = molecular target: DAT (Rattus norvegicus, UniProt P23977); test: Inhibition of [3H]dopamine uptake in rat caudate synaptosomes; type: biochemical; settings: for Fold decrease in DAT potency relative to comparator compound: 8 vs 7, 15 vs 9, 16 vs 7, 17 vs 10
[2] = tested on: DAT; settings: read-out: IC50 as DAT reuptake inhibitor; 3,4-dichloro-α-PVP series; cited from earlier work
[3] = read-out: IC50, nM (SD), inhibition at DAT, 5 nM [3H]dopamine uptake, rat caudate synaptosomes, mean ± SD, n = 3

Chain of DAT (Rattus norvegicus, UniProt P23977) (P23977 whole entry): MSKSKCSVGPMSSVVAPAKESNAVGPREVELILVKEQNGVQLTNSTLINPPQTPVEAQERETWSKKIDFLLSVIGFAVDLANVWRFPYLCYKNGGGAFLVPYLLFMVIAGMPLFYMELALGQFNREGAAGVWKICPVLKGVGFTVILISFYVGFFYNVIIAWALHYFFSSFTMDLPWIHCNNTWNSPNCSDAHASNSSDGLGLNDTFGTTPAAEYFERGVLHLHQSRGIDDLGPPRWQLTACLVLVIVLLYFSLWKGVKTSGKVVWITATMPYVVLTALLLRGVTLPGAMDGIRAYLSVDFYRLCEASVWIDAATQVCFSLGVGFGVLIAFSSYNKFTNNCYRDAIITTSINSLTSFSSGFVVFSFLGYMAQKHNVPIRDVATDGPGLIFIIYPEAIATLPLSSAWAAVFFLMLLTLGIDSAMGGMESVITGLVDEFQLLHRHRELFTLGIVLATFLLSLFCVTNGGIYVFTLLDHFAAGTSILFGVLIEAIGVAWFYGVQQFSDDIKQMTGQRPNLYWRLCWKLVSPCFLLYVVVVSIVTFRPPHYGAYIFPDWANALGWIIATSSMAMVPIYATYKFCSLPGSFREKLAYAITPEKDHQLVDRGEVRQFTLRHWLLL

Structure (SMILES) | IC50 [1, 3] [nM] | IC50 [1] [nM] | also measured
CCCCC(C(=O)c1ccccc1)N1CCCC1 (centres unmarked) [compound 12, 1-Phenyl-2-(pyrrolidin-1-yl)hexanone Oxalate] | 11.6 | – | –
O=C(c1ccccc1)C(C1CCCC1)N1CCCC1 (centres unmarked) [compound 13, 2-Cyclopentyl-1-phenyl-2-(pyrrolidin-1-yl)ethanone Hydrochloride] | – | 17.1 | –
CCCC(C(=O)c1ccccc1)N1CCCCC1 (centres unmarked) [compound 16, 1-Phenyl-2-(piperidin-1-yl)pentan-1-one Hydrochloride] | – | 128 | –
O=C(O)C(=O)O.O=C1c2ccccc2CCC1N1CCCC1 (centres unmarked) [compound 17, 2-(Pyrrolidin-1-yl)-3,4-dihydronaphthalen-1(2H)-one Oxalate] | – | 12900 | Fold decrease in DAT potency relative to comparator compound [1]: 200 fold
CCCC(C(=O)c1ccc(Cl)c(Cl)c1)N1CCCC1 (stereo not drawn) [3,4-dichloro-α-PVP] | – | – | IC50 [2]: 43 nM
O=C(c1ccccc1)C(C1CCCCC1)N1CCCC1 (centres unmarked) [compound 14, 2-Cyclohexyl-1-phenyl-2-(pyrrolidin-1-yl)ethanone Hydrochloride] | – | 8.3 | –
O=C(CN1CCCC1)c1ccccc1.O=C(O)C(=O)O [compound 8, 2-(1-Pyrolidinyl)-1-acetophenone Oxalate] | 3250 | – | Fold decrease in DAT potency relative to comparator compound [1]: 185 fold
CCCC(C(=O)c1ccccc1)N1CCCC1 (stereo not drawn) [compound 7, α-Pyrrolidinovalerophenone, reference compound] | 17.5 | – | –
CC(C)C(C(=O)c1ccccc1)N1CCCC1 (centres unmarked) [compound 11] | 92.3 | – | –
